Test results: patent publication US5789434A, “Derivatives of substituted 4-biarylbutyric acid as matrix metalloprotease inhibitors” (priority 1995, dated 1998)

Columns and labels:
Format in all cases: biochemical
MMP-9 = biological target: T1, MMP-9 (Homo sapiens, UniProt P14780); assay: Automated MMP Profiling Assay, MMP-9 fluorogenic; conditions: 96-well automated, P218
T1 construct: from tissue; host or cells: human polymorphonuclear leukocytes (PMN) from whole blood (New York Blood Center), PMA-stimulated supernatant
T1 sequence (P14780 107-707 limits assumed): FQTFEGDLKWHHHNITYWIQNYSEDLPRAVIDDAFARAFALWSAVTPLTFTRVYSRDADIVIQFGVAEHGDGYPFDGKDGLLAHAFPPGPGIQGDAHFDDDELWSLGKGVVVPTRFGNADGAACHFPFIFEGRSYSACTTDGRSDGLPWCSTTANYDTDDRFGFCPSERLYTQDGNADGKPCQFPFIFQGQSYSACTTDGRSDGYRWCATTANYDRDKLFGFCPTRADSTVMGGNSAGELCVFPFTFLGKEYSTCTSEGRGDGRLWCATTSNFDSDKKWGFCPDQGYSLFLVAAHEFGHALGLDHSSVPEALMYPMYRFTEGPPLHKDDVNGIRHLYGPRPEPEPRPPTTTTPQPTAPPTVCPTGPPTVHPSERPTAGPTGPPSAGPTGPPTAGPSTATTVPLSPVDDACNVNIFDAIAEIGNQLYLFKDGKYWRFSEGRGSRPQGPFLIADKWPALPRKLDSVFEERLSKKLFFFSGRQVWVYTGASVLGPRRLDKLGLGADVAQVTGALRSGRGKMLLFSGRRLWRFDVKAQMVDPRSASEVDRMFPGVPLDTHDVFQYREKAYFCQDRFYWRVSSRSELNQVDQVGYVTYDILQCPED
Description: Briefly, polymorphonuclear leukocytes (PMN) preparations were isolated as described above from 3 or more units of freshly drawn whole blood obtained from the New York Blood Center (New York, N.Y.). Cells were resuspended in phosphate buffered saline (PBS) containing 100 ng/ml phorbol myristate acetate (PMA) in the presence of 50 mM diisopropylfluorophospate (DFP), 1 μg/ml leupeptin and aprotinin, and 1 mg/ml catalase for 1 hr at 37° C. Supernatants were collected by centrifugation (300×g) and the samples were frozen at -70° C. All chromatographic methods were performed at 4° C. Thawed samples were concentrated 5-fold using an Amicon chamber equipped with a YM-10 membrane. The concentrate was pressure dialyzed against 0.02M Tris-HCl, 0.1M NaCl, 1 mM CaCl2, 1 μM ZnCl2, 0.001% Brij-35, 0.02% sodium azide (NaN3), pH 7.5 and applied to DEAE ion exchange chromatography resin which was previously equilibrated with the same buffer at a flow rate of 0.4 ml/min. The column was extensively washed with the same buffer and gelatinase was eluted as 4 ml fractions from the column with 0.02M Tris-HCl, 0.5M NaCl, 1 mM CaCl2, 1 μM ZnCl2, 0.001% Brij-35, 0.02% NaN3, pH 7.5. Gelatinase containing fractions were observed by gelatin zymography (see below), loaded onto a gelatin agarose affinity resin and washed with the same buffer. Gelatinase activity was eluted at a flow rate of 1 ml/min from the column as 1 ml fractions with 0.02M Tris-HCl, 1M NaCl, 1 mM CaCl2, 1 μM ZnCl2, 0.001% Brij-35, 0.02% NaN3, pH 7.5 containing 10% dimethyl sulfoxide (DMSO). The fractions containing gelatinase activity were pooled and dialyzed against 0.005M Tris-HCl, 5 mM NaCl, 0.5 mM CaCl2, 0.1 μM ZnCl2, 0.001% Brij-35, pH 7.4. The protein content associated with material was determined with a micro-BCA assay (Pierce, Rockford, Ill.), lyophilized and reconstituted to a desired working concentration (100 μg/ml).
This assay was run with a protocol analogous to that reported for MMP-3 inhibition using the synthetic peptide P218 and each of the three enzymes and measuring quenched fluorescence. This assay with each invention compound was run with the three enzymes MMP-3, MMP-9 and MMP-2 in parallel as adapted for a 96-well microtitre plate using a Hamilton A® workstation.

MMP-3 = biological target: T2, MMP-3 (Homo sapiens, UniProt P08254); assay: Automated MMP Profiling Assay, MMP-3 fluorogenic; conditions: 96-well automated, P218
T2 construct: Truncated Prostromelysin-257 was expressed in a soluble form in E.coli; made in house; host or cells: E. coli
T2 sequence (P08254 100-274 limits assumed): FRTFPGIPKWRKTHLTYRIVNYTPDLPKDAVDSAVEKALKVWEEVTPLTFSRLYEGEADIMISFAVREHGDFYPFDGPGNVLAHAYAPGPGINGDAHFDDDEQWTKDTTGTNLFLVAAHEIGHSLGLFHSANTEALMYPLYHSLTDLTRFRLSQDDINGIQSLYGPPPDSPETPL
Text: This assay with each invention compound was run with the three enzymes MMP-3, MMP-9 and MMP-2 in parallel as adapted for a 96-well microtitre plate using a Hamilton A® workstation.

MMP-2 = biological target: T3, MMP-2 (Homo sapiens, UniProt P08253); assay: Automated MMP Profiling Assay, MMP-2 fluorogenic; conditions: 96-well automated, P218; read-out: MMP-2 Fluorogenic IC50 (profiling)
T3 sequence (P08253 110-660): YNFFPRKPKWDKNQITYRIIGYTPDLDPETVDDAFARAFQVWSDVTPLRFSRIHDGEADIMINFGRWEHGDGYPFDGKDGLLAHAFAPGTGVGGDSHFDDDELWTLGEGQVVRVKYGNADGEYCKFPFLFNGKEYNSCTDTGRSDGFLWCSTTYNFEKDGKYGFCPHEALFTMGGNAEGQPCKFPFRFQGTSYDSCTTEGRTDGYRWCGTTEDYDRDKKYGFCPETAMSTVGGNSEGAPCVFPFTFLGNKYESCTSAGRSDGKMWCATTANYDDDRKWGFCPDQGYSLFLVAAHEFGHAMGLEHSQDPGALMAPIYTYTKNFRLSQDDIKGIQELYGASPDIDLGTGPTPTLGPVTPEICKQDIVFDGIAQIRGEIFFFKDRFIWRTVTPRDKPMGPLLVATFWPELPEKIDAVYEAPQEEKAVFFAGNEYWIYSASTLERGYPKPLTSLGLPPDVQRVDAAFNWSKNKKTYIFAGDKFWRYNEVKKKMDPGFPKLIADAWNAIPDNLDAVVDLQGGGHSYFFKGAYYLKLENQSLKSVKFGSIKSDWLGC

O=C(O)[C@H]1[C@H](CSc2ccccc2)CC[C@@H]1C(=O)c1ccc(-c2ccc(Cl)cc2)cc1 (relative stereo) [Example 373, Cyclopentanecarboxylic acid, 2-[(4'-chloro[1,1'-biphenyl]-4-yl)carbonyl]-5-[(phenylthio)methyl]-, (1α,2β,5β)-]
IC50 (MMP-9): 113 nM
IC50 (MMP-3): 56 nM
IC50 (MMP-2): 24 nM

CCCSC[C@@H]1CC[C@H](C(=O)c2ccc(-c3ccc(Cl)cc3)cc2)[C@H]1C(=O)O (relative stereo) [Example 374, Cyclopentanecarboxylic acid, 2-[(4'-chloro[1,1'-biphenyl]-4-yl)carbonyl]-5-[(propylthio)methyl]-, (1α,2β,5β)-]
IC50 (MMP-9): 271 nM
IC50 (MMP-3): 54 nM
IC50 (MMP-2): 34 nM

O=C(O)[C@H]1[C@H](CSc2nc3ccccc3s2)CC[C@@H]1C(=O)c1ccc(-c2ccc(Cl)cc2)cc1 (relative stereo) [Example 375, Cyclopentanecarboxylic acid, 2-[(2-benzothiazolylthio)methyl]-5-[(4'-chloro[1,1'-biphenyl]-4-yl)carbonyl]-, (1α,2β,5β)-]
IC50 (MMP-9): 146 nM
IC50 (MMP-3): 116 nM
IC50 (MMP-2): 68 nM

COC(=O)c1ccccc1SC[C@@H]1CC[C@H](C(=O)c2ccc(-c3ccc(Cl)cc3)cc2)[C@H]1C(=O)O (relative stereo) [Example 376, Benzoic acid, 2-[[[2-carboxy-3-[(4'-chloro[1,1'-biphenyl]-4-yl)carbonyl]cyclopentyl]methyl]thio]-, 1-methyl ester, (1α,2β,3α)0]
IC50 (MMP-9): 95 nM
IC50 (MMP-3): 46 nM
IC50 (MMP-2): 34 nM

O=C(NC[C@@H]1CC[C@H](C(=O)c2ccc(-c3ccc(Cl)cc3)cc2)[C@H]1C(=O)O)OCc1ccccc1 (relative stereo) [Example 377]
IC50 (MMP-9): 44 nM
IC50 (MMP-3): 24 nM
IC50 (MMP-2): 28 nM

Cc1ccccc1C(=O)OC[C@@H]1CC[C@H](C(=O)c2ccc(-c3ccc(Cl)cc3)cc2)[C@H]1C(=O)O (relative stereo) [Example 378, Benzoic acid, 2-methyl-, [2-carboxy-3-[(4'-chloro[1,1'-biphenyl]-4-yl)carbonyl]cyclopentyl]methyl ester, (1α,2β,3α)-]
IC50 (MMP-9): 83 nM
IC50 (MMP-3): 77 nM
IC50 (MMP-2): 43 nM

Cc1cccc(C(=O)OC[C@@H]2CC[C@H](C(=O)c3ccc(-c4ccc(Cl)cc4)cc3)[C@H]2C(=O)O)c1 (relative stereo) [Example 379, Benzoic acid, 3-methyl-, [2-carboxy-3-[(4'-chloro[1,1'-biphenyl]-4-yl)carbonyl]cyclopentyl]methyl ester, (1α,2β,3α)-]
IC50 (MMP-9): 48 nM
IC50 (MMP-3): 63 nM
IC50 (MMP-2): 92 nM

Cc1ccc(C(=O)OC[C@@H]2CC[C@H](C(=O)c3ccc(-c4ccc(Cl)cc4)cc3)[C@H]2C(=O)O)cc1 (relative stereo) [Example 380, Benzoic acid, 4-methyl-, [2-carboxy-3-[(4'-chloro[1,1'-biphenyl]-4-yl)carbonyl]cyclopentyl]methyl ester, (1α,2β,3α)-]
IC50 (MMP-9): 40 nM
IC50 (MMP-3): 46 nM
IC50 (MMP-2): 69 nM

COc1ccccc1C(=O)OC[C@@H]1CC[C@H](C(=O)c2ccc(-c3ccc(Cl)cc3)cc2)[C@H]1C(=O)O (relative stereo) [Example 381, Benzoic acid, 2-methoxy-, [2-carboxy-3-[(4'-chloro[1,1'-biphenyl]-4-yl)carbonyl]cyclopentyl]methyl ester, (1α,2β,3α)-]
IC50 (MMP-9): 97 nM
IC50 (MMP-3): 46 nM
IC50 (MMP-2): 44 nM

COc1cccc(C(=O)OC[C@@H]2CC[C@H](C(=O)c3ccc(-c4ccc(Cl)cc4)cc3)[C@H]2C(=O)O)c1 (relative stereo) [Example 382, Benzoic acid, 3-methoxy-, [2-carboxy-3-[(4'-chloro[1,1'-biphenyl]-4-yl)carbonyl]cyclopentyl]methyl ester, (1α,2β,3α)-]
IC50 (MMP-9): 39 nM
IC50 (MMP-3): 42 nM
IC50 (MMP-2): 64 nM

COc1ccc(C(=O)OC[C@@H]2CC[C@H](C(=O)c3ccc(-c4ccc(Cl)cc4)cc3)[C@H]2C(=O)O)cc1 (relative stereo) [Example 383, Benzoic acid, 4-methoxy-, [2-carboxy-3-[(4'-chloro[1,1'-biphenyl]-4-yl)carbonyl]cyclopentyl]methyl ester, (1α,2β,3α)-]
IC50 (MMP-9): 53 nM
IC50 (MMP-3): 58 nM
IC50 (MMP-2): 110 nM

O=C(O)[C@H]1[C@H](CSc2nc3ccccc3o2)CC[C@@H]1C(=O)c1ccc(-c2ccc(Cl)cc2)cc1 (relative stereo) [Example 384, Cyclopentanecarboxylic acid, 2-[(2-benzoxazolylthio)methyl]-5-[(4'-chloro[1,1'-biphenyl]-4-yl)carbonyl]-, (1α,2β,5β)-]
IC50 (MMP-9): 167 nM
IC50 (MMP-3): 129 nM
IC50 (MMP-2): 78 nM

O=C(O)[C@H]1[C@H](CN2C(=O)c3cccc([N+](=O)[O-])c3C2=O)CC[C@@H]1C(=O)c1ccc(-c2ccc(Cl)cc2)cc1 (relative stereo) [Example 385, Cyclopentanecarboxylic acid, 2-[(4'-chloro[1,1'-biphenyl]-4-yl)carbonyl]-5-[(1,3-dihydro-4-nitro-1,3-dioxo-2H-isoindol-2-yl)methyl]-, (1α,2β,5β)-]
IC50 (MMP-9): 1.12 nM
IC50 (MMP-3): 4.22 nM
IC50 (MMP-2): 4.26 nM

O=C(O)[C@H]1[C@H](CN2C(=O)c3ccc([N+](=O)[O-])cc3C2=O)CC[C@@H]1C(=O)c1ccc(-c2ccc(Cl)cc2)cc1 (relative stereo) [Example 386, Cyclopentanecarboxylic acid, 2-[(4'-chloro[1,1'-biphenyl]-4-yl)carbonyl]-5-[(1,3-dihydro-5-nitro-1,3-dioxo-2H-isoindol-2-yl)methyl]-, (1α,2β,5β)-]
IC50 (MMP-9): 0.97 nM
IC50 (MMP-3): 8.34 nM
IC50 (MMP-2): 11.7 nM

O=C(O)[C@H]1[C@H](CN2C(=O)c3cc4ccccc4cc3C2=O)CC[C@@H]1C(=O)c1ccc(-c2ccc(Cl)cc2)cc1 (relative stereo) [Example 387, Cyclopentanecarboxylic acid, 2-[(4'-chloro[1,1'-biphenyl]-4-yl)carbonyl]-5-[(1,3-dihydro-1,3-dioxo-2H-benz[.function.]isoindol-2-yl)methyl]-, (1α,2β,5β)-]
IC50 (MMP-9): 2 nM
IC50 (MMP-3): 9.4 nM
IC50 (MMP-2): 4.9 nM

O=C(O)[C@H]1[C@H](COc2ccc(Cl)cc2)CC[C@@H]1C(=O)c1ccc(-c2ccc(Cl)cc2)cc1 (relative stereo) [Example 388, Cyclopentanecarboxylic acid, 2-[(4'-chloro[1,1'-biphenyl]-4-yl)carbonyl]-5-[(4-chlorophenoxy)methyl]-, (1α,2β,5β)-]
IC50 (MMP-9): 467 nM
IC50 (MMP-3): 105 nM
IC50 (MMP-2): 30 nM

O=C(O)[C@H]1[C@H](CON2C(=O)c3ccccc3C2=O)CC[C@@H]1C(=O)c1ccc(-c2ccc(Cl)cc2)cc1 (relative stereo) [Example 389, Cyclopentanecarboxylic acid, 2-[(4'-chloro[1,1'-biphenyl]-4-yl)carbonyl]-5-[[(1,3-dihydro-1,3-dioxo-2H-isoindol-2-yl)oxy]methyl]-, (1α,2β,5β)-]
IC50 (MMP-9): 23 nM
IC50 (MMP-3): 15 nM
IC50 (MMP-2): 6.3 nM
